Data taken from doi:10.1101/2025.11.24.689453v1, “Structural basis of stereochemical promiscuity by an umami taste receptor ortholog, Tas1r1/Tas1r3 from pufferfish” (biorxiv, 2025).

Key:
[1] = target: T1, pufferfish Tas1r1/Tas1r3LBD ("wild-type", free-cysteine eliminated) (Takifugu rubripes, UniProt Q2MHJ8+Q2MHK1, Q2MHJ8:C238S/Q2MHK1:C242S); test: differential scanning fluorimetry; format: binding; details: read-out: Kd-app
T1 construct: Tas1r1 Met1-Ser501 with C-terminal PA tag, Tas1r3 Met1-Ser496 with C-terminal FLAG tag; Endo H treated for crystals
Source text: (§1) differential scanning fluorimetry on pufferfish Tas1r1/Tas1r3LBD ("wild-type", free-cysteine eliminated)

[2] = target: T2, full-length pufferfish Tas1r1/Tas1r3 (Takifugu rubripes, UniProt Q2MHJ8+Q2MHK1); test: luminometric Ca2+ response (mt-clytin-II), HEK293T; format: cell-based; details: agonist
T2 construct: full-length heterodimer, transiently expressed in HEK293T with rat G15i2 and mt-apoclytin-II
T2 sequence (Q2MHK1 25-845): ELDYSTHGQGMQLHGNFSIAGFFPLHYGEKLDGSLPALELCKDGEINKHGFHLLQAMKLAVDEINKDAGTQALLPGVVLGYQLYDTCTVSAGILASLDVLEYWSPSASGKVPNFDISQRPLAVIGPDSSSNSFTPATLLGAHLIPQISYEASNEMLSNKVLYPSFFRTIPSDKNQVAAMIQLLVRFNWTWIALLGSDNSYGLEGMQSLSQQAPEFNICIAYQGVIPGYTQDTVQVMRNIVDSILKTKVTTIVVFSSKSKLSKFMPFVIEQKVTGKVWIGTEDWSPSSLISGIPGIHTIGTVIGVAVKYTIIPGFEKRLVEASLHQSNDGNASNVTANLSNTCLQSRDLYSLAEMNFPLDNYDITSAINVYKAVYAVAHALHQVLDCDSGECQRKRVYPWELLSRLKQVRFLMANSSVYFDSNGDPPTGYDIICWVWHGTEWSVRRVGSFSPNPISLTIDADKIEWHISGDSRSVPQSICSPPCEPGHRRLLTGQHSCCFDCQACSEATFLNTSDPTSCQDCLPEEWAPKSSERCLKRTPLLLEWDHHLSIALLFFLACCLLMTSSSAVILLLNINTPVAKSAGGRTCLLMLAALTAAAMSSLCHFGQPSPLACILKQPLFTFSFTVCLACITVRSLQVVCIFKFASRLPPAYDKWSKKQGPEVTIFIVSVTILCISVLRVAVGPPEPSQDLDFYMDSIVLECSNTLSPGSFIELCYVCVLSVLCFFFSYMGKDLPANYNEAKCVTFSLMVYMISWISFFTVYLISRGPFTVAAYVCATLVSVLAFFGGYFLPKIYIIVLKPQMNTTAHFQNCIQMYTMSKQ
T2 sequence (Q2MHJ8 20-853): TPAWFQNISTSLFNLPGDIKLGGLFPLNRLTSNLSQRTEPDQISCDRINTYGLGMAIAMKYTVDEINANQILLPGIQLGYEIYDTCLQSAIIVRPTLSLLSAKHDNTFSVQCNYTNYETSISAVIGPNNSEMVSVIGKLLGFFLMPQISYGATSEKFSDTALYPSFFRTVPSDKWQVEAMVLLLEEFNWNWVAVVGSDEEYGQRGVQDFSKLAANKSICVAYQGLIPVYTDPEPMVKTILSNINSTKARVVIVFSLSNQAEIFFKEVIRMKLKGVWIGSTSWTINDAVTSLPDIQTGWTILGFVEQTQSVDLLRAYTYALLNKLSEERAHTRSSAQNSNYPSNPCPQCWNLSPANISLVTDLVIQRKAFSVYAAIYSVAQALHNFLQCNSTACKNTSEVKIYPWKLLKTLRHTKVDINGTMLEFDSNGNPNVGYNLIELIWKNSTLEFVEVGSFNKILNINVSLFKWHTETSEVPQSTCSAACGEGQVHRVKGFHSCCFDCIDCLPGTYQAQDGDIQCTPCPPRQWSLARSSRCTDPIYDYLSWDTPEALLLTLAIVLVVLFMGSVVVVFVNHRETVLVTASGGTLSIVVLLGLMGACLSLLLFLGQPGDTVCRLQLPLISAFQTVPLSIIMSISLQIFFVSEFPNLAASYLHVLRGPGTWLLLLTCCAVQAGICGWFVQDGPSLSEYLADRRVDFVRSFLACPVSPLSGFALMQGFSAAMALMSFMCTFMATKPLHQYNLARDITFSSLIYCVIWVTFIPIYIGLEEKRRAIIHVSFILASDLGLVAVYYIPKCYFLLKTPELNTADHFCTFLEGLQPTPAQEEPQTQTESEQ

[3] = target: T3, pufferfish Tas1r1/Tas1r3LBD ("wild-type", free-cysteine eliminated) (Takifugu rubripes, UniProt Q2MHJ8+Q2MHK1, Q2MHJ8:C238S/Q2MHK1:C242S/Q2MHK1:E174A); test: differential scanning fluorimetry; format: binding; details: read-out: Kd-app
T3 construct: Tas1r1 Met1-Ser501 with C-terminal PA tag, Tas1r3 Met1-Ser496 with C-terminal FLAG tag; Endo H treated for crystals
Source text: as §1

[4] = target: T4, pufferfish Tas1r1/Tas1r3LBD ("wild-type", free-cysteine eliminated) (Takifugu rubripes, UniProt Q2MHJ8+Q2MHK1, Q2MHJ8:C238S/Q2MHK1:C242S/Q2MHK1:Y385F); test: differential scanning fluorimetry; format: binding; details: read-out: Kd-app
T4 construct: Tas1r1 Met1-Ser501 with C-terminal PA tag, Tas1r3 Met1-Ser496 with C-terminal FLAG tag; Endo H treated for crystals
Source text: as §1

[5] = target: T5, pufferfish Tas1r1/Tas1r3LBD ("wild-type", free-cysteine eliminated) (Takifugu rubripes, UniProt Q2MHJ8+Q2MHK1, Q2MHJ8:C238S/Q2MHK1:C242S/Q2MHK1:D306A); test: differential scanning fluorimetry; format: binding; details: read-out: Kd-app
T5 construct: Tas1r1 Met1-Ser501 with C-terminal PA tag, Tas1r3 Met1-Ser496 with C-terminal FLAG tag; Endo H treated for crystals
Source text: as §1

[6] = target: T6, pufferfish Tas1r1/Tas1r3LBD ("wild-type", free-cysteine eliminated) (Takifugu rubripes, UniProt Q2MHJ8+Q2MHK1, Q2MHJ8:C238S/Q2MHK1:C242S/Q2MHK1:R469V); test: differential scanning fluorimetry; format: binding; details: read-out: Kd-app
T6 construct: Tas1r1 Met1-Ser501 with C-terminal PA tag, Tas1r3 Met1-Ser496 with C-terminal FLAG tag; Endo H treated for crystals
Source text: as §1

[7] = target: T1, pufferfish Tas1r1/Tas1r3LBD ("wild-type", free-cysteine eliminated); test: X-ray crystal structure; DSF; format: binding; details: orthosteric site in both subunits

Structure (SMILES) | Kd [1] | response at 50 mM [2] | Kd [3] | Kd [4] | Kd [5] | Kd [6] | X-ray crystal structure; DSF [7]
CC(C)(N)C(=O)O [2-methylalanine] | 1290 ± 140 µM | – | – | – | – | – | –
C[C@@H](N)C(=O)O [D-alanine] | 1440 ± 90 µM | D-alanine and D-phenylalanine demonstrated a relatively high extent of binding and evoked low | 1690 ± 460 µM | 1980 ± 120 µM | 3140 ± 910 µM | 1880 ± 140 µM | –
N[C@H](Cc1ccccc1)C(=O)O [D-phenylalanine] | – | D-alanine and D-phenylalanine demonstrated a relatively high extent of binding and evoked low | – | – | – | – | D-phenylalanine-bound Tas1r1/Tas1r3LBD structure also adopts a compact dimerization manner
C[C@H](N)C(=O)O [L-alanine] | 126 ± 7 µM | The receptor bound and responded to a wide range of L-amino acids, including L-alanine | 61.4 ± 17.7 µM | 186 ± 13 µM | 97.9 ± 22.5 µM | 203 ± 13 µM | –
CN[C@@H](C)C(=O)O [N-methyl-L-alanine] | 345 ± 8 µM | – | – | – | – | – | –
